Laboratory results as given in publication PMC6100240, “Discovery of 2-(4-Substituted-piperidin/piperazine-1-yl)-N-(5-cyclopropyl-1H-pyrazol-3-yl)-quinazoline-2,4-diamines as PAK4 Inhibitors with Potent A549 Cell Proliferation, Migration, and Invasion Inhibition Activity” (Molecules : A Journal of Synthetic Chemistry and Natural …, 2018).

How the values were obtained:
PAK4 = target: T1, PAK4 (Homo sapiens, UniProt O96013); test: PAK4 HTRF kinase assay; assay type: biochemical
T1 construct: purchased Sigma-Aldrich
T1 sequence (O96013 whole entry): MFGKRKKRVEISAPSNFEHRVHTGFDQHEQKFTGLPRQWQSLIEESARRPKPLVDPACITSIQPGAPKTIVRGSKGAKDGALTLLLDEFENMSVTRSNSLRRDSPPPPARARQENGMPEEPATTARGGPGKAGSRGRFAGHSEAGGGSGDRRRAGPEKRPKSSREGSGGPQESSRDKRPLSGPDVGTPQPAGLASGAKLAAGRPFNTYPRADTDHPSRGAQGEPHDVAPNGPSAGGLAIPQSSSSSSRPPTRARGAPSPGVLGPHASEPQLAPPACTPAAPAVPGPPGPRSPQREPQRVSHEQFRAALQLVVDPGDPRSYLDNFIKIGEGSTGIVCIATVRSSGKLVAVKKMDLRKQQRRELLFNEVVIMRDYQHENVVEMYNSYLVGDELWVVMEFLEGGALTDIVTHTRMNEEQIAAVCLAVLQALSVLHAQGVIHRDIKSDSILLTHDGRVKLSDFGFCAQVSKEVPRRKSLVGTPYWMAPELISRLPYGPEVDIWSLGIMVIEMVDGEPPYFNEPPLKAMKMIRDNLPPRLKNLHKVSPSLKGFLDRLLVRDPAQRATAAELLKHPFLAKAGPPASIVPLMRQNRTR

A549 cell line = test: MTT cell proliferation assay, A549; assay type: cell-based; details: Homo sapiens, 50% cell growth inhibition after 24 h of drug exposure
Experimental: (§1) Meanwhile, the tumor cell line HT1080, whose growth is not dependent on PAK4, was used to test the potential off-target effects of the potent PAK4 inhibitors.
(§2) The human pulmonary carcinoma cell line A549 and the human fibrosarcoma cell line HT1080 were cultured in RPMI-1640 medium containing 10% fetal bovine serum (FBS), at 37 °C in a humidified atmosphere containing 5% CO2.
(§3) The in vitro antiproliferative activity of some of the target compounds was determined by the MTT assay (Amresco, Seattle, WA, USA). A suspension of 100 µL human cancer cells (5 × 10^4/mL) was plated in a 96-well cell culture plate and incubated with 5% CO2 at 37 °C for 24 h. Then cells were exposed to various concentrations of compounds and further cultured for 24 h. After that, MTT was added and absorbance was measured at 490 nm using a EL × 800 microplate reader (BioTek, Winooski, VT, USA). Dose-response curves were plotted to determine the IC50 values using GraphPad Prism 5.0. Each IC50 value was expressed as mean ± standard deviation.

A549 cells [1] = test: Transwell cell migration assay; assay type: cell-based, human; details: 24 h
Experimental: (§4) We next examined the effects of compound 8d on the cycle progression of A549. Cells were treated with compound 8d at varying concentrations (1.0, 3.0, 9.0 μM) and vehicle (dimethyl sulfoxide−DMSO) for 24 h, and subjected to flow cytometry analysis to determine the distribution of cells in various phases of the cell cycle. […] PAK4 activity is involved in cytoskeleton dynamics and cancer cell migration and invasion; therefore, the inhibitory effect of 8d on A549 cell migration and invasion were analyzed.
(§5) Cell migration assays were evaluated in transwell chambers (Corning Incorporated, Corning, NY, USA). Cell invasion assays were evaluated in Matrigel invasion chambers (Becton-Dickinson). First, 0.5 × 10^5 tumor cells were plated in the top chamber with RPMI-1640 medium without FBS. Test compound was added to the bottom chamber with 500 µL medium containing 20% FBS. After incubation for 24 h at 37 °C, the cells were fixed in 100% methanol and stained with 0.1% crystal violet, then washed with PBS; the cells that had not migrated from the top surface of the filters were removed with cotton. Migrated cells were quantified by counting them in three randomly selected fields on the diameter under a microscope at 200× magnification

A549 cells [2] = test: Matrigel cell invasion assay; assay type: cell-based, human; details: A549, Matrigel chamber, 24 h
Experimental: as §4, §5

HT1080 = test: MTT cell proliferation assay, HT1080; assay type: cell-based, human; details: for IC50: Homo sapiens, HT-1080, 50% cell growth inhibition after 24 h of drug exposure, MTT assay; for Activity against HT1080 (off-target check): growth not dependent on PAK4
Experimental: as §1, §2, §3

[3] = system: human gastric cancer cells; parameters: method as in PMID 22085492; details: cited from earlier work

Compound	melting point [°C]	IC50 (PAK4) [nM]	other results
Clc1ccc2nc(N3CCC(N4CCCCC4)CC3)nc(Nc3cc(C4CC4)[nH]n3)c2c1 [Compound 6a, ([1,4′-Bipiperidin]-1′-yl)-6-chloro-N-(5-cyclopropyl-1H-pyrazol-3-yl)quinazolin-4-amine]	208.3 to 209.6	440	–
Clc1ccc2nc(N3CCC(N4CCOCC4)CC3)nc(Nc3cc(C4CC4)[nH]n3)c2c1 [Compound 6b]	214.3 to 216.6	560	–
Clc1ccc2nc(N3CCN(c4ccccc4)CC3)nc(Nc3cc(C4CC4)[nH]n3)c2c1 [Compound 7a, 6-Chloro-N-(5-cyclopropyl-1H-pyrazol-3-yl)-2-(4-phenylpiperazin-1-yl)quinazolin-4-amine]	239.5 to 240.8	850	–
Cc1ccc(N2CCN(c3nc(Nc4cc(C5CC5)[nH]n4)c4cc(Cl)ccc4n3)CC2)cc1 [Compound 7b, 6-Chloro-N-(5-cyclopropyl-1H-pyrazol-3-yl)-2-(4-(p-tolyl)piperazin-1-yl)quinazolin-4-amine]	204.9 to 207.5	240	–
Clc1ccc2nc(N3CCN(c4ccc(Br)cc4)CC3)nc(Nc3cc(C4CC4)[nH]n3)c2c1 [Compound 7c, 2-(4-(4-Bromophenyl)piperazin-1-yl)-6-chloro-N-(5-cyclopropyl-1H-pyrazol-3-yl)quinazolin-4-amine]	248.7 to 251.9	100	–
FC(F)(F)c1ccc(N2CCN(c3nc(Nc4cc(C5CC5)[nH]n4)c4cc(Cl)ccc4n3)CC2)cc1 [Compound 7d, 6-Chloro-N-(5-cyclopropyl-1H-pyrazol-3-yl)-2-(4-(4-(trifluoromethyl)phenyl)piperazin-1-yl)quinazolin-4-amine]	256.4 to 257.8	650	–
Clc1ccc(N2CCN(c3nc(Nc4cc(C5CC5)[nH]n4)c4cc(Cl)ccc4n3)CC2)cc1 [Compound 7e, 6-Chloro-2-(4-(4-chlorophenyl)piperazin-1-yl)-N-(5-cyclopropyl-1H-pyrazol-3-yl)quinazolin-4-amine]	250 to 251.8	160	–
Clc1cccc(N2CCN(c3nc(Nc4cc(C5CC5)[nH]n4)c4cc(Cl)ccc4n3)CC2)c1 [Compound 7f, 6-Chloro-2-(4-(3-chlorophenyl)piperazin-1-yl)-N-(5-cyclopropyl-1H-pyrazol-3-yl)quinazolin-4-amine]	229.9 to 232.6	490	–
COc1ccc(N2CCN(c3nc(Nc4cc(C5CC5)[nH]n4)c4cc(Cl)ccc4n3)CC2)cc1 [Compound 7g, 6-Chloro-N-(5-cyclopropyl-1H-pyrazol-3-yl)-2-(4-(4-methoxyphenyl)piperazin-1-yl)quinazolin-4-amine]	237.1 to 239.5	300	–
COc1cccc(N2CCN(c3nc(Nc4cc(C5CC5)[nH]n4)c4cc(Cl)ccc4n3)CC2)c1 [Compound 7h, 6-Chloro-N-(5-cyclopropyl-1H-pyrazol-3-yl)-2-(4-(3-methoxyphenyl)piperazin-1-yl)quinazolin-4-amine]	199.9 to 201.8	690	–
Fc1ccc(N2CCN(c3nc(Nc4cc(C5CC5)[nH]n4)c4cc(Cl)ccc4n3)CC2)cc1 [Compound 7i, 6-Chloro-N-(5-cyclopropyl-1H-pyrazol-3-yl)-2-(4-(4-fluorophenyl)piperazin-1-yl)quinazolin-4-amine]	228.8 to 231	200	–
Clc1ccc2nc(N3CCN(c4ccccn4)CC3)nc(Nc3cc(C4CC4)[nH]n3)c2c1 [Compound 8a, 6-Chloro-N-(5-cyclopropyl-1H-pyrazol-3-yl)-2-(4-(pyridin-2-yl)piperazin-1-yl)quinazolin-4-amine]	184.4 to 186.7	310	–
COc1ccnc(N2CCN(c3nc(Nc4cc(C5CC5)[nH]n4)c4cc(Cl)ccc4n3)CC2)c1 [Compound 8b, 6-Chloro-N-(5-cyclopropyl-1H-pyrazol-3-yl)-2-(4-(4-methoxypyridin-2-yl)piperazin-1-yl)quinazolin-4-amine]	210.3 to 211.6	380	–
Cc1ccc(N2CCN(c3nc(Nc4cc(C5CC5)[nH]n4)c4cc(Cl)ccc4n3)CC2)nc1 [Compound 8c, 6-Chloro-N-(5-cyclopropyl-1H-pyrazol-3-yl)-2-(4-(5-methylpyridin-2-yl)piperazin-1-yl)quinazolin-4-amine]	263 to 265.4	87	–
Clc1ccc2nc(N3CCN(c4ccc(Br)cn4)CC3)nc(Nc3cc(C4CC4)[nH]n3)c2c1 [Compound 8d, 2-(4-(5-Bromopyridin-2-yl)piperazin-1-yl)-6-chloro-N-(5-cyclopropyl-1H-pyrazol-3-yl)quinazolin-4-amine]	270.5 to 272.8	60	IC50 (A549 cell line): 4680 nM; Effect on cell migration (A549 cells [1]): decreased the migration and invasion potential; Effect on cell invasion (A549 cells [2]): decreased the migration and invasion potential; IC50 (HT1080): 21500 nM; Activity against HT1080 (off-target check) (HT1080): negligible activity
FC(F)(F)c1ccc(N2CCN(c3nc(Nc4cc(C5CC5)[nH]n4)c4cc(Cl)ccc4n3)CC2)nc1 [Compound 8e, 6-Chloro-N-(5-cyclopropyl-1H-pyrazol-3-yl)-2-(4-(5-(trifluoromethyl)pyridin-2-yl)piperazin-1-yl)quinazol-in-4-amine]	247.6 to 259.6	220	–
Clc1ccc2nc(N3CCN(c4ncccn4)CC3)nc(Nc3cc(C4CC4)[nH]n3)c2c1 [Compound 9a, 6-Chloro-N-(5-cyclopropyl-1H-pyrazol-3-yl)-2-(4-(pyrimidin-2-yl)piperazin-1-yl)quinazolin-4-amine]	249.3 to 250.5	380	–
Cc1cnc(N2CCN(c3nc(Nc4cc(C5CC5)[nH]n4)c4cc(Cl)ccc4n3)CC2)nc1 [Compound 9b, 6-Chloro-N-(5-cyclopropyl-1H-pyrazol-3-yl)-2-(4-(5-methylpyrimidin-2-yl)piperazin-1-yl)quinazolin-4-amine]	262.8 to 264.7	110	–
Clc1ccc2nc(N3CCN(c4ncc(Br)cn4)CC3)nc(Nc3cc(C4CC4)[nH]n3)c2c1 [Compound 9c, 2-(4-(5-Bromopyrimidin-2-yl)piperazin-1-yl)-6-chloro-N-(5-cyclopropyl-1H-pyrazol-3-yl)quinazolin-4-amine]	280.6 to 282.7	68	IC50 (A549 cell line): 4750 nM; IC50 (HT1080): 39300 nM; Activity against HT1080 (off-target check) (HT1080): negligible activity
COc1cccc(Nc2nc(NCC3CCCO3)c3ccccc3n2)c1 (centres unmarked) [LCH-7749944, N^2-(3-methoxyphenyl)-N^4-((tetrahydrofuran-2-yl)methyl)quinazoline-2,4-diamine]	–	–	Effect on proliferation, migration, and invasion [3]: effectively suppressed
